The source of these data is US20130053323A1, “METHODS AND USE RELATED TO HUMANIN AND HUMANIN-LIKE PEPTIDES” (priority 2009, published 2013).

The test system of one experiment is growth plate cartilage. Description: Growth plate histology, resting and proliferating chondrocyte zone (R+P). Particulars: four weeks. The class given is in vivo, mice. The protocol: Four weeks old mice (female, FVB) were injected with Dexa dissolved in saline ([…]) subcutaneously in the neck every day for four week. Whereas, HNG (S14G) dissolved in saline (1 μg/mice) was injected intra-peritoneally, 45 minutes prior to the Dexa injection for four weeks, for details see materials and methods. The femur and tibia bones were dissected out and fixed in 4% formalin for 24 hrs, followed by decalcification in 10% EDTA and embedded in paraffin blocks. Five-micrometer-thick sections were prepared from these paraffin blocks. The sections were prepared from the tibial growth plate and stained with Van Gieson. Digital images of stained sections were collected using a Nikon Eclipse E800 microscope (Nikon Corp., Tokyo, Japan) equipped with an Olympus DP70 digital camera (Olympus Sverige AB, Solna, Sweden).
Since a positive effect of HNG (S14G) on bone growth was identified, different zones of chondrocytes were analyzed (resting, proliferative and hypertrophic) in growth plate cartilage, to identify visible changes in these zones. […] These micropgraphas also explain the longitudinal bone growth promoting effects by HNG (S14G) alone or in combination with Dexa.

For another experiment, the system named is NMRI nude mice. The experiment in a line: Bone growth (X-ray) in tumor-xenografted NMRI nude mice. Particulars: HNG 1 μg/mice i.p. + bortezomib 1 mg/kg i.p. days 1, 4, 8, 11, day 13. In kind it is in vivo. The protocol:
Male NMRI nu/nu mice (B&K Scanbur, Sweden or Taconic, Denmark) were xenografted at the age of 4 weeks (BW 18-25 g). The mice were anesthetized with 2% fluothane (Zeneca Ltd, Macclesfield, UK) supplemented with 50% N2O in oxygen. Tumor cells (NB (SH-SY5Y; 20×10^6 cells/side) or MB (D-283; 10×10^6 cells/side) in 0.1 ml medium) were implanted s.c. in the hindlegs of the animal using a 23 G needle. Tumors were measured every other day with a digital caliper, starting when they were palpable. At a tumor volume of 0.1 ml or 0.15 ml the animals were randomized into groups (1. Vehicle without tumors; 2. Vehicle with tumors; 3. HNG (S14G; 1 μg/mice); 4. CT (bortezomib; 0.8 mg/kg or 1 mg/kg); 5. HNG (S14G) 1 μg/mice+CT (bortezomib; 0.8 mg/kg or 1 mg/kg), stratified by their bodyweight and treatment started. Treatment regime was the same as in clinical settings with 2 injections/week; 2 weeks treatment (see FIG. 1, Group 1). HNG (S14G) was injected 40 min before the CT (bortezomib) injection. Tumor volume was calculated by the formula 0.44×length×width×width (Wassberg, Pahlman et al. 1997). […] The animal weight and general appearance were recorded every day throughout the experiments. […] After fixation, femur and tibia were measured with digital calipers and decalcified in 5% EDTA and then paraffin embedded. […]

Experiment [1] has as its system neuroblastoma (SK-N-BE(2)) tumor xenografts. The experiment in a line: Doubling time of tumors in neuroblastoma xenografts. The class given is in vivo, human. Particulars: combination bortezomib 0.8 mg/kg i.v. + HNG 1 μg/mouse/injection i.p.; p<0.05 vs vehicle. A general note: Xenograft models place foreign cells or tissue in a host animal.

Consider “S14G-HN (MAPRGFSCLLLLTGEIDLPVKRRA) [HNG (S14G)]”, for which the “size of resting and proliferating chondrocyte zone (R+P)” value with growth plate cartilage (HNG (S14G)/Dexa, vs Dexa only) was “larger than in the Dexa only treated group”; in the experiment on growth plate cartilage (HNG alone 1 μg/mice, vs all other groups), “appears to be larger”. For the same substance, the “rescue of bortezomib-induced impairment of linear bone growth” value in the experiment on NMRI nude mice (medulloblastoma xenograft) was “able to rescue and prevent the undesired side effects of CT (bortezomib) on linear bone growth”; in the experiment with NMRI nude mice (neuroblastoma xenograft), “able to rescue and prevent the undesired side effects of CT (bortezomib) on linear bone growth”. Besides, the tumor doubling time result in experiment [1] is given as “significant reduction in tumor doubling time”.
